What follows are compounds tested against T1, human GPR39 receptor (Homo sapiens, UniProt O43194) (assay: Intracellular calcium response (FLIPR, Calcium-6) in PC3 cells, antagonism of agonist C3 (TC-G 1008) at EC90). Details: functional pKi (-Log10Ki) by modified Cheng-Prusoff from IC50; PC3 cells endogenously expressing human GPR39; 30 μM ZnCl2; agonist C3 (TC-G 1008) at EC90 1.5 μM; read-out: fpKi activity.
T1 construct: PC3 Cells, Expressing the Endogenous Human GPR39 Receptor; endogenous in cells; host or cells: PC3 (human prostate adenocarcinoma) cells
T1 sequence (O43194 1-453): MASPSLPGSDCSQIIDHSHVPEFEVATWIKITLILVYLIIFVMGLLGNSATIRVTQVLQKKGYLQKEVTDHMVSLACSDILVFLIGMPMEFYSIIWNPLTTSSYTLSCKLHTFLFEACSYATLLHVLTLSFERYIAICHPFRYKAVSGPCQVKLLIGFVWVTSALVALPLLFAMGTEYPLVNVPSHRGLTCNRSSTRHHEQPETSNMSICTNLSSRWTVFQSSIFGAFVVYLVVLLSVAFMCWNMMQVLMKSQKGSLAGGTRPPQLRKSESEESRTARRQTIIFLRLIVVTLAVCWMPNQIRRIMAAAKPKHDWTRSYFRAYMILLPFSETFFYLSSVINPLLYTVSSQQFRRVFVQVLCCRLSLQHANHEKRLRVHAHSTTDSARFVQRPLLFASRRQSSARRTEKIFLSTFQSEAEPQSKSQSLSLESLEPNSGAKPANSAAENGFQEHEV
Assay type: cell-based
Procedure, shortened: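 Calcium-6-loaded cells in HEPES buffer pH 7.4 were given compound with 30 μM final ZnCl2 (0.32% DMSO) for 10 min, then challenged with 1.5 μM C3. Baseline-subtracted peak fluorescence expressed as % inhibition of the C3 response; IC50 from four-parameter logistic fit, reported as binned fpKi.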
With `CN1CCN(S(=O)(=O)c2ccc(NC(=O)C3CC3)cc2N2CCCC2)C(c2ccccc2)C1` (centres unmarked) [Example 102, N-[4-(4-methyl-2-phenylpiperazin-1-yl)sulfonyl-3-pyrrolidin-1-ylphenyl]cyclopropanecarboxamide] the Ki was 1260 to 6310 nM.
In the case of `CN1CCN(S(=O)(=O)c2ccc(NC(=O)C3CC3)cc2N2CCCC2)CC1` [Example 103, N-[4-(4-methylpiperazin-1-yl)sulfonyl-3-pyrrolidin-1-ylphenyl]cyclopropanecarboxamide], the Ki is reported as 1260 to 6310 nM.
For `CN(C1CCN(C(=O)c2ccc(NC(=O)C3CC3)cc2N2CCCC2)CC1)S(C)(=O)=O` [Example 104, N-[4-[4-[methyl(methylsulfonyl)amino]piperidine-1-carbonyl]-3-pyrrolidin-1-ylphenyl]cyclopropanecarboxamide], the Ki was 1260 to 6310 nM.
Compound `CS(=O)(=O)NC1CCN(C(=O)c2ccc(NC(=O)C3CC3)cc2N2CCCC2)CC1` [Example 105, N-[4-[4-(methanesulfonamido)piperidine-1-carbonyl]-3-pyrrolidin-1-ylphenyl]cyclopropanecarboxamide] has a Ki of over 6310 nM.
`O=C(c1ccc(-c2nnc[nH]2)cc1N1CCCC1)N1CCC(C(F)(F)F)CC1` [Example 112, [2-pyrrolidin-1-yl-4-(4H-1,2,4-triazol-3-yl)phenyl]-[4-(trifluoromethyl)piperidin-1-yl]methanone] showed a Ki of 63.1 to 251 nM.
For `CN1CCN(C(=O)c2cc3[nH]c(C4CC4)nc3cc2N2CCCC2)C(c2ccccc2)C1` (centres unmarked) [Example 113, (2-cyclopropyl-6-pyrrolidin-1-yl-3H-benzimidazol-5-yl)-(4-methyl-2-phenylpiperazin-1-yl)methanone], the Ki was over 6310 nM.
Work on `Cc1nc2cc(N3CCCC3)c(C(=O)N3CCN(C)CC3c3ccccc3)cc2[nH]1` (centres unmarked) [Example 114, (4-methyl-2-phenylpiperazin-1-yl)-(2-methyl-6-pyrrolidin-1-yl-3H-benzimidazol-5-yl)methanone] yielded a Ki of over 6310 nM.
For `CN1CCN(C(=O)c2cc(F)c(NC(=O)C3CC3)nc2N2CCCC2)C(c2ccccc2)C1` (centres unmarked) [Example 115, N-[3-fluoro-5-(4-methyl-2-phenylpiperazine-1-carbonyl)-6-pyrrolidin-1-ylpyridin-2-yl]cyclopropanecarboxamide], the Ki was 1260 to 6310 nM.
For `O=C(Nc1ccc(C(=O)N2CCS(=O)(=O)CC2)c(-n2ccc(C(F)F)n2)c1)C1CC1` [Example 116, N-[3-[3-(difluoromethyl)pyrazol-1-yl]-4-(1,1-dioxo-1,4-thiazinane-4-carbonyl)phenyl]cyclopropanecarboxamide], the Ki was 63.1 to 251 nM.
For `N#Cc1ccn(-c2cc(NC(=O)C3CC3)ccc2C(=O)N2CCS(=O)(=O)CC2)n1` [Example 117, N-[3-(3-cyanopyrazol-1-yl)-4-(1,1-dioxo-1,4-thiazinane-4-carbonyl)phenyl]cyclopropanecarboxamide], the Ki was 1260 to 6310 nM.
`CC(C)(C)c1ccn(-c2cc(NC(=O)C3CC3)ccc2C(=O)N2CCS(=O)(=O)CC2)n1` [Example 118, N-[3-(3-tert-butylpyrazol-1-yl)-4-(1,1-dioxo-1,4-thiazinane-4-carbonyl)phenyl]cyclopropanecarboxamide] was tested, and the Ki was at most 50.1 nM.
`O=C(Nc1ccc(C(=O)N2CCC(F)(F)CC2)c(-n2ccc(C(F)(F)F)n2)c1)C1CC1` [Example 119, N-[4-(4,4-difluoropiperidine-1-carbonyl)-3-[3-(trifluoromethyl)pyrazol-1-yl]phenyl]cyclopropanecarboxamide] showed a Ki of at most 50.1 nM.
Compound `Cc1nnc(-c2ccc(C(=O)N3CCC(C#N)CC3)c(-c3ccn(C(C)C)n3)c2)[nH]1` [Example 120, 1-[2-(1-isopropylpyrazol-3-yl)-4-(5-methyl-4H-1,2,4-triazol-3-yl)benzoyl]piperidine-4-carbonitrile] has a Ki of 316 to 1000 nM.
For `Cc1nnc(-c2ccc(C(=O)N3CCC(C(F)(F)F)CC3)c(-n3ccc(C4CC4)n3)c2)[nH]1` [Example 121, [2-(3-cyclopropylpyrazol-1-yl)-4-(5-methyl-4H-1,2,4-triazol-3-yl)phenyl]-[4-(trifluoromethyl)piperidin-1-yl]methanone], the Ki was at most 50.1 nM.

— patent US20250333405A1, “ANTAGONISTS OF GPR39 PROTEIN” (VASOCARDEA, INC., priority 2024, published 2025)
